# Test results from ChEMBL document CHEMBL1201862, “PubChem BioAssay data set” (2004).
# The source made the active and inactive calls.
# Experiments:
# Cytochrome P450 2C19 = Cytochrome P450 2C19 (Homo sapiens, UniProt P33261); assay: Cytochrome panel assay with activity outcomes. Panel member name: p450-cyp2c19 Compounds with AC50 equal or less than 10 uM are considered active; format: functional
# Cytochrome P450 1A2 = target: T1, Cytochrome P450 1A2 (Homo sapiens, UniProt P05177);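 note: PubChem cytochrome P450 panel assay, CYP1A2 panel member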
# T1 sequence (P05177 whole entry): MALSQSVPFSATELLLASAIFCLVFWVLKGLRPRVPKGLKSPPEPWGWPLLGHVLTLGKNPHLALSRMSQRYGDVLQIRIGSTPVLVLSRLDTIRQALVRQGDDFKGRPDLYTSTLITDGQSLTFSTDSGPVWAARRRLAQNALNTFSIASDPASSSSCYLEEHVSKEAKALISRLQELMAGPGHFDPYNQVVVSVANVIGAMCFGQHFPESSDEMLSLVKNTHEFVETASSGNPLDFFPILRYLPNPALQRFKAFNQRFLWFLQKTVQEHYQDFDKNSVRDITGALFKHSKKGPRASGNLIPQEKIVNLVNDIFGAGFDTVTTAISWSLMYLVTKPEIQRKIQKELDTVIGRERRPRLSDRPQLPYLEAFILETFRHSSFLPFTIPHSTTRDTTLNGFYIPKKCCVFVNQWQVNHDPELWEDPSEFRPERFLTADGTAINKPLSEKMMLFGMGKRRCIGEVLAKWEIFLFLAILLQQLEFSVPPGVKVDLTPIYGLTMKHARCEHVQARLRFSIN
# Cytochrome P450 3A4 = Cytochrome P450 3A4 (Homo sapiens, UniProt P08684);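 note: CYP3A4 tested as one member of a cytochrome P450 panel screen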
# Cytochrome P450 2C9 = Cytochrome P450 2C9 (Homo sapiens, UniProt P11712)
# [1] = HEp-2 cell cytotoxicity, dose response, cytotoxicity control for RSV inhibitor project, HTS (AID 2410); format: functional; details: human respiratory syncytial virus
# Streptokinase A = target: T2, Streptokinase A (Streptococcus pyogenes serotype M1, UniProt P10520); assay: S. pyogenes streptokinase expression inhibitors, potency, dose response, plasminogen activation absorbance, OD405 (AID 1914); format: functional, Streptococcus pyogenes M1 GAS;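 note: secreted streptokinase activity via plasminogen activation per viability signal from cell pellet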
# T2 sequence (P10520 whole entry): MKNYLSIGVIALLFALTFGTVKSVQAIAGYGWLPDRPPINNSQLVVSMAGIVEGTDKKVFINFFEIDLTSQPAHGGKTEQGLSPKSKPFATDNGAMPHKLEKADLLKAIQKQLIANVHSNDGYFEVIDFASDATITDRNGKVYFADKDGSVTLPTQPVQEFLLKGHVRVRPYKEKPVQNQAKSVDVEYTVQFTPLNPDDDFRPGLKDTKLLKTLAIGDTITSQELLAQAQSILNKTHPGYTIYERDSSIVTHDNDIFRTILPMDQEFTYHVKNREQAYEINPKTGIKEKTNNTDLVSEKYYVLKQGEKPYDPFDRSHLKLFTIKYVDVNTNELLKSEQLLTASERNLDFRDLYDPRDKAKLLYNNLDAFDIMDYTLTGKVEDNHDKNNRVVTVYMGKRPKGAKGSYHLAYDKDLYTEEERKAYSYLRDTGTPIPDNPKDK
# [2] = test system: Streptococcus sp. 'group A'; assay: growth inhibition of control SK(-) GAS strain, dose response, counter-screen for streptokinase expression inhibitor project, luminescence, kanamycin, BacTiterGlo, confirmation (AID 1900); format: functional, organism-based
# Streptococcus = assay: Group A Streptococcus viability loss, dose response, counter-screen for streptokinase expression inhibitor project, luminescence, BacTiterGlo (AID 1915); format: functional, organism-based;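 note: potency for reduction of bacterial viability or growth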
# [3] = Shn3 3'UTR reporter inhibitors, dose response, cell-based, Clone20 osteoblasts, firefly luciferase, cherry-picked (AID 624132); format: functional;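 note: firefly luciferase luminescence from reporter carrying the Shn3 3'UTR in osteoblasts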
# [4] = control 3'UTR Renilla luciferase suppression, dose response, counter-screen for Shn3 inhibitor project, cell-based, Clone20-Shn3RL, cherry-picked (AID 624133); format: functional
# [5] = target: T3, Corticotropin-releasing factor receptor 2/Corticotropin-releasing factor-binding protein (Homo sapiens, UniProt P24387+Q13324); assay: activators of CRF receptor 2 with binding protein – uHTS hits, confirmation (AID 602473); format: functional; details: read-out: EC50_Mean
# T3 sequence (Q13324 whole entry): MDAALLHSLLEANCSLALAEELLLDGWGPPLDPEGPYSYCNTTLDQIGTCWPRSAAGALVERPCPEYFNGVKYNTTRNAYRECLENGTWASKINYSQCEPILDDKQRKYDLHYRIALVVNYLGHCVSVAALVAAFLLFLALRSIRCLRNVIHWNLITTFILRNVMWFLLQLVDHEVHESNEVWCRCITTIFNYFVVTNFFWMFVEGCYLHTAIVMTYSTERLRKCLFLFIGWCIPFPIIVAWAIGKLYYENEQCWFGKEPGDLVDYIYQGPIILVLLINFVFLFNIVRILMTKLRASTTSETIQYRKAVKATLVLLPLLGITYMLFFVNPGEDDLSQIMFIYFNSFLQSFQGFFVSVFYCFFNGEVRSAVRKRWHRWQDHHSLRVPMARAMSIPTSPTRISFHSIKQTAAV
# T3 sequence (P24387 whole entry): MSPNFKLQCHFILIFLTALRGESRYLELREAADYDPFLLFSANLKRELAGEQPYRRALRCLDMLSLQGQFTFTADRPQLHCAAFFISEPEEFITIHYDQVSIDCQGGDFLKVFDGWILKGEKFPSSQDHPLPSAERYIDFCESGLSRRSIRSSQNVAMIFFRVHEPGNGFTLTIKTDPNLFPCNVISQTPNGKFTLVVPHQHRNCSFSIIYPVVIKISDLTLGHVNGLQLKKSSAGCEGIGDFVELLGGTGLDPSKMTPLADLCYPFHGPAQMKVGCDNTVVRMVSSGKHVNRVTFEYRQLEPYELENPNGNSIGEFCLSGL
# Sequence of Cytochrome P450 2C19 (P33261 whole entry): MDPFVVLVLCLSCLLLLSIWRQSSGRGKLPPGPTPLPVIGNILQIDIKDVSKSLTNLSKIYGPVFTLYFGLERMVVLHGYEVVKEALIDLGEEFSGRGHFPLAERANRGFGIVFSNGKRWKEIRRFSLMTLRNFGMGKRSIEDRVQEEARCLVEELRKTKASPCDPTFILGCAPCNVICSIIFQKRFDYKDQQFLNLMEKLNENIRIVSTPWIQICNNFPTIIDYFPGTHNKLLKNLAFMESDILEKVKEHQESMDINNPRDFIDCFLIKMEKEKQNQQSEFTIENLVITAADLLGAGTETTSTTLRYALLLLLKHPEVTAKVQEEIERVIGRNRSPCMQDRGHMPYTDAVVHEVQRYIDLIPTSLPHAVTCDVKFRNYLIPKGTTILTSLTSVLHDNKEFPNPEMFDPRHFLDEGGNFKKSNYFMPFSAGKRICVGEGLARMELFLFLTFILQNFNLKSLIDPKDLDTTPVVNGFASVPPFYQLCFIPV
# Sequence of Cytochrome P450 3A4 (P08684 whole entry): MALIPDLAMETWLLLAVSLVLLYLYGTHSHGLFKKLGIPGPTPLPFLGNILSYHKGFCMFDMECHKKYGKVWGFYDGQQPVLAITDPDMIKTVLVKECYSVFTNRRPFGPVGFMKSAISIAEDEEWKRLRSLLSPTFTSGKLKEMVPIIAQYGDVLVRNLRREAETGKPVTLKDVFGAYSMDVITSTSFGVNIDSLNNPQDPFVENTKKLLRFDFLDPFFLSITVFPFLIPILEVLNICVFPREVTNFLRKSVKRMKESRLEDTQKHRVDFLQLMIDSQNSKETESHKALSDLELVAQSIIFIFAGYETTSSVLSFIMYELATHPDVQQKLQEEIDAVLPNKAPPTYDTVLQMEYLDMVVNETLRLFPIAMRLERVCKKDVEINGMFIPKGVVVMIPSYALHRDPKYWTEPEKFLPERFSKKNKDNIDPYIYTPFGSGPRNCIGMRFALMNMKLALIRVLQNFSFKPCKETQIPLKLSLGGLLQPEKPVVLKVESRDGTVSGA
# Sequence of Cytochrome P450 2C9 (P11712 whole entry): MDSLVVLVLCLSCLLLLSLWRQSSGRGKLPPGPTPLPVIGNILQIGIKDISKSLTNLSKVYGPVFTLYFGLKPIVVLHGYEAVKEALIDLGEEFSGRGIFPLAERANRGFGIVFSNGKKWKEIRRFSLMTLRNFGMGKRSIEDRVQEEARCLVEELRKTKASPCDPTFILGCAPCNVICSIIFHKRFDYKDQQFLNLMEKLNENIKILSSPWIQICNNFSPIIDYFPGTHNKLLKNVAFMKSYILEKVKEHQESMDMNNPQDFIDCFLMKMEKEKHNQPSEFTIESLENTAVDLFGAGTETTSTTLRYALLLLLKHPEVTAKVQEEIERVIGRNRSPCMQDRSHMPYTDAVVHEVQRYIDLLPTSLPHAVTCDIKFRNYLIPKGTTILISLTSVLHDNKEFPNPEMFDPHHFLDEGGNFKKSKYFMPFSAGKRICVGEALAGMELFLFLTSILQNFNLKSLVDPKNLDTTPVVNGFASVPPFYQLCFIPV
structure (smiles),measurement,setting,value
COCCNC(=O)C(c1ccc(C)o1)N(CC1CCCO1)C(=O)Cn1nnc2ccccc21 (stereo not drawn),AC50,Cytochrome P450 2C19,inconclusive
same,AC50,Cytochrome P450 1A2,12.6 µM (inconclusive)
same,AC50,Cytochrome P450 3A4,15.8 µM (inconclusive)
COC(=O)N1CCC2(CCCN(c3ccncc3)C2)CC1,AC50,Cytochrome P450 2C19,inconclusive
Cc1cccc(NC(=NS(=O)(=O)c2ccccc2)C(F)(F)F)c1,AC50,Cytochrome P450 2C19; read-out: AC50,22.4 µM (inconclusive)
same,AC50,Cytochrome P450 3A4,25.1 µM (inconclusive)
CN(Cc1cc(Br)cc(Br)c1O)Cc1c(O)ccc2ccccc12,AC50,Cytochrome P450 1A2,1.26 µM (inconclusive)
same,AC50,Cytochrome P450 3A4,3.98 µM (inconclusive)
same,AC50,Cytochrome P450 2C9,3.16 µM (inconclusive)
Cn1c(SCc2ccccc2Cl)nc2c1c(=O)[nH]c(=O)n2C,CC50,[1],> 50 µM (active)
CCCn1nc(Oc2nc(NCC)nc(NCC)n2)ccc1=O,AC50,Cytochrome P450 2C19; read-out: AC50,31.6 µM (inconclusive)
same,AC50,Cytochrome P450 1A2,15.8 µM (inconclusive)
COCCCNC(=S)NNC(=S)Nc1cccc(Cl)c1,EC50,Streptokinase A,> 150 µM (not active)
CCCCCn1c(SCc2ccncc2)nc2cc(C(=O)NCc3ccco3)ccc2c1=O,CC50,[1],48.3 µM (active)
O=C(Nc1cccc2ncccc12)c1cccc(F)c1,AC50,Cytochrome P450 1A2,15.8 µM (inconclusive)
same,AC50,Cytochrome P450 3A4,22.4 µM (inconclusive)
CCc1ccccc1S(=O)(=O)Cc1ccc(C(=O)N2CCN(c3ccccc3OC)CC2)o1,CC50,[1],> 50 µM (active)
COc1ccc(NP(=O)(Oc2ccc(Cl)cc2)Oc2ccc(Cl)cc2)cc1OC,EC50,[2],12.4 µM (active)
same,EC50,Streptokinase A,21.1 µM (active)
same,EC50,Streptococcus,16.3 µM (active)
CCOC(=O)CSc1nnc(Cc2cc(O)nc(O)n2)n1-c1cccc(OC)c1,AC50,Cytochrome P450 2C19,inconclusive
same,AC50,Cytochrome P450 3A4,22.4 µM (inconclusive)
O=C(c1ccco1)N1CCC2(CCCN(c3ccccn3)C2)CC1,AC50,Cytochrome P450 1A2,10 µM (inconclusive)
same,AC50,Cytochrome P450 3A4,15.8 µM (inconclusive)
CCCCC1=NN2C(=N)CC(=O)N=C2S1,AC50,Cytochrome P450 1A2,25.1 µM (inconclusive)
same,AC50,Cytochrome P450 2C9,2.51 µM (inconclusive)
COc1cc(OC)cc(C(=O)Nc2nnc(N=C(S)Nc3ccccc3)s2)c1,CC50,[1],8.31 µM (active)
same,EC50,[2],9.71 µM (active)
same,EC50,Streptococcus,30.7 µM (active)
COc1cc(OC)cc(C(=O)Nc2nnc(NC(=S)Nc3ccccc3)s2)c1,EC50,Streptokinase A,> 150 µM (not active)
Cc1cccc(C)c1OC1(c2ccccc2)OC(=O)c2ccccc21 (stereo not drawn),EC50,[2],18.4 µM (active)
same,EC50,Streptokinase A,12.2 µM (active)
same,EC50,Streptococcus,> 150 µM (not active)
CN(Cc1c(F)cccc1Cl)C(=O)CCc1c[nH]c2ccccc12,CC50,[1],30 µM (active)
Cc1nnc(-c2cnn(-c3ccccc3)c2N)n1Cc1ccncc1,AC50,Cytochrome P450 2C19; read-out: AC50,11.2 µM (inconclusive)
same,AC50,Cytochrome P450 1A2,11.2 µM (inconclusive)
same,AC50,Cytochrome P450 3A4,15.8 µM (inconclusive)
CC12CC(O)C3c4ccc(O)cc4CCC3C1CCC2=O (stereo not drawn),AC50,[3],> 70 µM (inactive)
same,AC50,[4],26.8 µM (active)
CCC1(c2ccc(F)cc2)NC(=O)N(CC(=O)N2CCc3ccccc32)C1=O (stereo not drawn),EC50,[5],11 µM (active)
CCc1nc2c3cnn(-c4cc(Cl)ccc4C)c3ncn2n1,EC50,[2],> 150 µM (not active)
same,EC50,Streptokinase A,> 150 µM (not active)
same,EC50,Streptococcus,> 150 µM (not active)
